Assay results reported in ChEMBL document CHEMBL1132885, “Phosphate prodrugs of PD154075” (Bioorg Med Chem Lett, 2000).

Legend:
[1] = system: Rattus norvegicus; assay: In vivo percentage of prodrug (Compound) reconversion to PD-154075 from (male Wistar rat) plasma after intravenous administration of the 5 mg/ml compound; assay type: functional
[2] = Solubility in water was determined; assay type: physicochemical
[3] = system: Rattus norvegicus; assay: In vivo percentage of prodrug (Compound) reconversion to PD-154075 from (male Wistar rat) plasma after intravenous administration of the 4.6 mg/ml compound; assay type: functional
[4] = system: Rattus norvegicus; assay: In vivo percentage of prodrug (Compound) reconversion to PD-154075 from (male Wistar rat) plasma after intravenous administration of the 5.7 mg/ml compound; assay type: functional
[5] = system: Rattus norvegicus; assay: In vivo percentage of prodrug (Compound) reconversion to PD-154075 from (male Wistar rat) plasma after intravenous administration of the 5.3 mg/mL compound; assay type: functional

Cc1cc(C)c(C(C)(C)CC(=O)n2cc(C[C@@](C)(NC(=O)OCc3cc4ccccc4o3)C(=O)N[C@H](C)c3ccccc3)c3ccccc32)c(OP(=O)([O-])[O-])c1.[Na+].[Na+]
Prodrug reconversion [1]: 9.35% | solubility [2]: 31 mg/mL

C[C@@H](NC(=O)[C@@](C)(Cc1cn(C(=O)c2ccccc2COP(=O)([O-])[O-])c2ccccc12)NC(=O)OCc1cc2ccccc2o1)c1ccccc1.[Na+].[Na+]
Prodrug reconversion [3]: 19.9% | solubility [2]: 55 mg/mL

C[C@@H](NC(=O)[C@@](C)(Cc1cn(P(=O)([O-])[O-])c2ccccc12)NC(=O)OCc1cc2ccccc2o1)c1ccccc1.[Na+].[Na+]
solubility [2]: 76 mg/mL | Prodrug reconversion [4]: 11.7%

C[C@@H](NC(=O)[C@@](C)(Cc1cn(C(=O)OCOC(=O)c2ccc(COP(=O)([O-])[O-])cc2)c2ccccc12)NC(=O)OCc1cc2ccccc2o1)c1ccccc1.[Na+].[Na+]
Prodrug reconversion [5]: 59.5% | solubility [2]: 58 mg/mL

CC(NC(=O)[C@@](C)(Cc1c[nH]c2ccccc12)NC(=O)OCc1cc2ccccc2o1)c1ccccc1 (single isomer, unassigned)
solubility [2]: < 0.001 mg/mL
